Data reported in ChEMBL document CHEMBL4052659, “Synthesis, molecular docking, and biological activity of polyfluoroalkyl dihydroazolo[5,1-c][1,2,4]triazines as selective carboxylesterase inhibitors” (Bioorg Med Chem, 2017).
The source made the active and inactive calls. The rule behind the calls is not given here.

What was measured:
[1] = molecular target: Acetylcholinesterase (Homo sapiens) (UniProt P22303); assay: Inhibition of human erythrocyte acetylcholinesterase at 20 uM using acetylthiocholine iodide as substrate preincubated for 10 mins followed by substrate addition by Ellman's method relative to control
Chain of Acetylcholinesterase (Homo sapiens) (P22303 whole entry): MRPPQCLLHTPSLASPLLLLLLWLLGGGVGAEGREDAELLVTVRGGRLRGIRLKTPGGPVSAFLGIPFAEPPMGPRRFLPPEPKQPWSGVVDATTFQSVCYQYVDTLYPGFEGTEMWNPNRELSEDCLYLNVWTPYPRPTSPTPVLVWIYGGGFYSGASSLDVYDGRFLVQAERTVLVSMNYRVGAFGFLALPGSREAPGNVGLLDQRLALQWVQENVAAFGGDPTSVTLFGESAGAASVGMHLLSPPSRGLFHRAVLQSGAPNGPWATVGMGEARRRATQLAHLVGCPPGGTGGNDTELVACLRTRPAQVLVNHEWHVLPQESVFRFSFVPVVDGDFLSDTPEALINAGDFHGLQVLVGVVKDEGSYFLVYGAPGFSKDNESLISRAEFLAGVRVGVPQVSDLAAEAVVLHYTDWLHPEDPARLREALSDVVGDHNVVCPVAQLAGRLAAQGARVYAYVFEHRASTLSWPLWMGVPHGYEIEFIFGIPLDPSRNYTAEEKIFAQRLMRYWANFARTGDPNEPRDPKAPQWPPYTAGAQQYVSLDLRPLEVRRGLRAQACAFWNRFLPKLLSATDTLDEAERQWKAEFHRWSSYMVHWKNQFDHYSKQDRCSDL

[2] = molecular target: Cholinesterase (Equus caballus) (UniProt P81908); assay: Inhibition of equine serum butyrylcholinesterase at 20 uM using butyrylthiocholine iodide as substrate preincubated for 10 mins followed by substrate addition by Ellman's method relative to control
Chain of Cholinesterase (Equus caballus) (P81908 whole entry): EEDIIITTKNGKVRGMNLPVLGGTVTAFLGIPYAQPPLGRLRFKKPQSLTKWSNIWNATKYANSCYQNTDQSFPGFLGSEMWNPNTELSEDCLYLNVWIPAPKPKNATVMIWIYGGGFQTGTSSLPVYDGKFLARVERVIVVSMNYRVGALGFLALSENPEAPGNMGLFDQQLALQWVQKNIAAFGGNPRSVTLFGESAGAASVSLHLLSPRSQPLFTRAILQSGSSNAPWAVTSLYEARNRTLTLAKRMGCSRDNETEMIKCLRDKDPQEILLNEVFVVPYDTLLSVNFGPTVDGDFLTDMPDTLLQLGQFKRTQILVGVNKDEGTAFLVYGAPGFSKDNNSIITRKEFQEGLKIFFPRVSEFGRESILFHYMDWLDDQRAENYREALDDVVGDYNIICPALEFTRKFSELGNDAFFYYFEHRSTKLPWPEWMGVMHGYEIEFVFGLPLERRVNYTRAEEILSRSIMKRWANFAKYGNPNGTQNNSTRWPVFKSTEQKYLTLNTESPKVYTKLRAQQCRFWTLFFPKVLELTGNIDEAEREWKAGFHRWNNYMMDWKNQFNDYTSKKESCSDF

Liver carboxylesterase [3] = molecular target: T1, Liver carboxylesterase (Sus scrofa, UniProt Q29550); assay: Competitive inhibition of porcine liver carboxylesterase using varying levels of 4-nitrophenol acetate as substrate preincubated for 10 mins followed by substrate addition by Lineweaver-Burk plot analysis
T1 sequence (Q29550 whole entry): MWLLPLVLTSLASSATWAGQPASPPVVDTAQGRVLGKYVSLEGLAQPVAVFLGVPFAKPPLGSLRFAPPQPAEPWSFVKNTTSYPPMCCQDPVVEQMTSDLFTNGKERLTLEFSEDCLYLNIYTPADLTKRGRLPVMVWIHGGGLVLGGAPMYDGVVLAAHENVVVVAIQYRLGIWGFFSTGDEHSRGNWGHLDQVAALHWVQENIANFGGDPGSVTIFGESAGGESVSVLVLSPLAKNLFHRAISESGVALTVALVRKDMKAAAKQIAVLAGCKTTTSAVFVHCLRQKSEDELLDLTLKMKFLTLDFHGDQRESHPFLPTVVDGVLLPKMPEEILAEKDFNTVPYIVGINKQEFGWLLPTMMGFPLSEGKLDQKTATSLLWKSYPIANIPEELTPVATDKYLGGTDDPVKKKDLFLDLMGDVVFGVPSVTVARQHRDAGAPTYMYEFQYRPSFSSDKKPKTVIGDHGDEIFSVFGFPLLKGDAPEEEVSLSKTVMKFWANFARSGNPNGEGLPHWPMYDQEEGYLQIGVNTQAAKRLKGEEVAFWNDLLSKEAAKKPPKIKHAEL

Liver carboxylesterase [4] = molecular target: T1, Liver carboxylesterase; assay: Non-competitive inhibition of porcine liver carboxylesterase using varying levels of 4-nitrophenol acetate as substrate preincubated for 10 mins followed by substrate addition by Lineweaver-Burk plot analysis; details: pig
Liver carboxylesterase [5] = molecular target: T1, Liver carboxylesterase
Description: Inhibition of porcine liver carboxylesterase using 4-nitrophenol acetate as substrate preincubated for 10 mins followed by substrate addition by spectrophotometric analysis

[6] = Acute toxicity in CD-1 mouse assessed as mouse survival up to 300 mg/kg, ip measured for 14 days; assay type: organism-based; details: in vivo
Liver carboxylesterase [7] = molecular target: T1, Liver carboxylesterase; assay: Reversible mixed-type inhibition of porcine liver carboxylesterase at 5 to 20 uM using varying levels of 4-nitrophenol acetate as substrate preincubated for 10 mins followed by substrate addition by Lineweaver-Burk double-reciprocal plot analysis; details: pig
Liver carboxylesterase [8] = molecular target: T1, Liver carboxylesterase; assay: Reversible mixed-type inhibition of porcine liver carboxylesterase at 0.1 to 0.6 uM using varying levels of 4-nitrophenol acetate as substrate preincubated for 10 mins followed by substrate addition by Lineweaver-Burk double-reciprocal plot analysis; details: pig
Liver carboxylesterase [9] = molecular target: T1, Liver carboxylesterase; assay: Reversible mixed-type inhibition of porcine liver carboxylesterase at 0.5 to 2 uM using varying levels of 4-nitrophenol acetate as substrate preincubated for 10 mins followed by substrate addition by Lineweaver-Burk double-reciprocal plot analysis; details: pig
Liver carboxylesterase [10] = molecular target: T1, Liver carboxylesterase; assay: in vitro; details: pig, porcine liver carboxylesterase, probe 4-nitrophenol acetate
Description: Inhibition of porcine liver carboxylesterase at 20 uM using 4-nitrophenol acetate as substrate preincubated for 10 mins followed by substrate addition by spectrophotometric analysis relative to control

Structure (SMILES) | inhibition [1] | inhibition [2] | Ki (Liver carboxylesterase [3]) [µM] | alphaKi (Liver carboxylesterase [4]) [µM] | IC50 (Liver carboxylesterase [5]) [µM] | survival at 336 h [6] [%] | inhibition (INH) (Liver carboxylesterase [7]) | inhibition (INH) (Liver carboxylesterase [8]) | inhibition (INH) (Liver carboxylesterase [9]) | inhibition at 20 µM (Liver carboxylesterase [10]) [%]
COC(=O)C1=NNc2cc(-c3ccccc3)nn2C1(O)C(F)(F)C(F)(F)C(F)(F)C(F)(F)F (stereo not drawn) | 11.7% | 11.6% | 0.7 | 1.6 | 0.96 |  |  |  |  | 
O=C(C1=NNc2nnnn2C1(O)C(F)(F)F)c1ccccc1 (stereo not drawn) | inactive | inactive |  |  | 17.2 |  |  |  |  | 
CCOC(=O)C1=NNc2cc(C)nn2C1(O)C(F)(F)F (stereo not drawn) | inactive | 7.3% |  |  | 48.3 |  |  |  |  | 
CCOC(=O)C1=NNc2c(C(=O)OCC)ncn2C1(O)C(F)(F)F (stereo not drawn) | inactive | inactive |  |  | 34.4 |  |  |  |  | 
CCOC(=O)C1=NNc2nnnn2C1(O)C(F)(F)F (stereo not drawn) | inactive | inactive |  |  | 13.6 |  |  |  |  | 
CCOC(=O)C1=NNc2cc(-c3ccccc3)nn2C1(O)C(F)(F)C(F)(F)F (stereo not drawn) | 13.6% | 22% | 1.61 | 3.52 | 3.91 | 100 |  |  |  | 
COC(=O)C1=NNc2nnnn2C1(O)C(F)(F)C(F)F (stereo not drawn) | inactive | inactive |  |  | 12.3 |  |  |  |  | 
COC(=O)C1=NNc2ncnn2C1(O)C(F)(F)C(F)(F)C(F)(F)C(F)(F)F (stereo not drawn) | inactive | inactive | 6.51 | 23.4 | 10.7 |  | Active |  |  | 
CCOC(=O)c1cnn2c1NN=C(C(=O)OC)C2(O)C(F)(F)C(F)(F)C(F)(F)F (stereo not drawn) | inactive | inactive |  |  | 38.2 |  |  |  |  | 
COC(=O)C1=NNc2nnnn2C1(O)C(F)(F)C(F)(F)C(F)(F)F (stereo not drawn) | inactive | inactive |  |  | 3.29 |  |  |  |  | 
CCOC(=O)C1=NNc2nnnn2C1(O)C(F)(F)C(F)(F)C(F)(F)C(F)(F)F (stereo not drawn) | inactive | inactive |  |  | 0.83 |  |  |  |  | 
CCOC(=O)C1=NNc2cc(-c3ccccc3)nn2C1(O)C(F)(F)C(F)(F)C(F)(F)C(F)(F)F (stereo not drawn) | inactive | 16.2% | 0.23 | 0.69 | 0.46 | 100 |  | Active |  | 
COC(=O)C1=NNc2nnnn2C1(O)C(F)(F)C(F)(F)C(F)(F)C(F)(F)F (stereo not drawn) | inactive | inactive | 0.57 | 1.74 | 1.31 | 100 |  |  | Active | 
O=[N+]([O-])c1ccc(OP(=O)(O)Oc2ccc([N+](=O)[O-])cc2)cc1 | inactive | inactive |  |  | 1.8 |  |  |  |  | 
CCOC(=O)C1=NNc2ncnn2C1(O)C(F)(F)F (stereo not drawn) | inactive | inactive |  |  | 3.6 |  |  |  |  | 
CCOC(=O)C1=NNc2cc(C)nn2C1(O)C(F)(F)C(F)(F)C(F)(F)C(F)(F)F (stereo not drawn) | 3% | 6% |  |  | 1.44 | 100 |  |  |  | 
CCOC(=O)C1=NNc2c(C(=O)OCC)cnn2C1(O)C(F)(F)F (stereo not drawn) | inactive | 8.5% |  |  |  |  |  |  |  | 9.3
CCOC(=O)c1nnc(N)nc1C(F)(F)F | inactive | inactive |  |  | 3.9 |  |  |  |  | 
COC(=O)C1=NNc2nnnn2C1(O)C(F)(F)F (stereo not drawn) | inactive | 4.1% |  |  | 58.6 |  |  |  |  | 
O=C(C1=NNc2ncnn2C1(O)C(F)(F)C(F)(F)C(F)(F)F)c1ccccc1 (stereo not drawn) | inactive | inactive |  |  | 53.4 |  |  |  |  | 
CCOC(=O)C1=NNc2ncnn2C1(O)C(F)(F)C(F)(F)C(F)(F)C(F)(F)F (stereo not drawn) | inactive | 3.7% |  |  | 0.98 |  |  |  |  | 
CCOC(=O)C1=NNc2cc(-c3ccccc3)nn2C1(O)C(F)(F)F (stereo not drawn) | 3.8% | inactive |  |  | 16.4 |  |  |  |  | 
